Results published in patent publication US8962609B2, “Pyrimidine compounds as inhibitors of protein kinases IKK epsilon and/or TBK-1, processes for their preparation, and pharmaceutical compositions containing them” (Domainex Limited, priority 2010, dated 2015).
Read-outs that look alike come from different tables or passages of the source.

How the values were obtained:
[1] = biological target: IKKε (Homo sapiens (Human), UniProt Q14164); experiment: IKKε time-resolved fluorescence Lanthascreen kinase inhibition assay; format: biochemical
Experimental: (§1) Compounds of the invention (synthesised as described below) were tested for activity against the IKKε and TBK-1 enzyme as follows:
(§2) Inhibitions studies were performed using a time-resolved fluorescence-based Lanthascreen™ assay. Phosphorylation of a fluorescein-labelled substrate peptide is measured using terbium-labeled phosphospecific antibodies. Terbium is excited at 340 nm and the FRET energy transfer to fluorescein is measured at 495 and 520 nm. The emission ratio between 520 and 495 is a measure of the level of phosphorylation of the substrate by the kinase.
(§3) Kinase inhibition assays (10 μL) were performed at 20° C. in 384-well plate format. Compound IC50 values were determined at the apparent Km for ATP (20 μM) based on a radiometric assay (Invitrogen) using 8 or 10 point curves in duplicate. The final reaction conditions contained 400 nM fluorescein-IkBα substrate ([…]), 20 μM ATP, 2 nM or 8 nM IKKε or TBK1 kinase respectively, and 3% DMSO in kinase assay buffer consisting of 50 mM HEPES (pH 7.5), 10 mM MgCl, 1 mM EGTA, 0.01% Brij-35.
(§4) Compound dilutions were prepared from 10 mM DMSO stocks by dilution into DMSO.
(§5) The kinase phosphorylation assay was initiated by the addition of the kinase and the reaction was allowed to proceed for 1 hr or 2.5 hr for IKKε and TBK-1 kinase respectively. […] The reaction was stopped by the addition of 10 mM EDTA, and phosphorylation was detected after a 1 hr incubation with 1.5 nM terbium-labelled antibody against phosphorylation at Serine 32 on the IkBα[…]peptide, both in TR-FRET dilution buffer (Invitrogen).
(§6) In the data presented for IKKε, <9 μM means having an activity in the range from 300 nM≦9 μM; and <300 nM means having an activity in the range 30 nM≦300 nM; and for the data presented for TBK-1, <3 μM means having an activity in the range 300 nM≦3 μM, and <300 nM means having an activity in the range 30 nM≦300 nM.

[2] = biological target: TBK-1 (Homo sapiens (Human), UniProt Q9UHD2); experiment: biochemical
Experimental: as §1, §2, §3, §4, §5, §6

[3] = biological target: IKKβ (Homo sapiens (Human), UniProt O14920); experiment: IKKβ radiolabelled P33 ATP assay (Kinase Hotspot Technology); format: biochemical; conditions: for inhibition at 1 µM: read-out: IKK-β percentage inhibition (in brackets); for IC50: single point, read-out: Concentration of compounds required for ~ 50% inhibition, IKK-β
Experimental: (§7) The compounds of examples DMX-1,8,9,14 and 16 were tested for activity against TBK1, IKKβ, Jnk1 and Jnk3 in addition to IKK-ε and TBK-1. TBK-1, IKKβ, Jnk1 and Jnk3 were screened using radiolabelled P^33 ATP using the Kinase Hotspot Technology of Reaction Biology Corp. Screening against Jnk-1 and Jnk-3 was carried out at the Km for ATP. IKK-ε and TBK-1 screening was also carried out as described above at the Km for ATP for these enzymes. […] TBK-1, IKKβ and Jnk1 were screened using radiolabelled P^33 ATP using the Kinase Hotspot Technology of Reaction Biology Corp. IKK-ε and TBK-1 screening was also carried out as described above at the Km for ATP for these enzymes.

[4] = biological target: Jnk1 (Homo sapiens (Human), UniProt P45983); experiment: Jnk1 radiolabelled P33 ATP assay (Kinase Hotspot Technology); format: biochemical; conditions: for IC50: read-out: Concentration of compounds required for ~ 50% inhibition, Jnk-1; for inhibition at 1 µM: single point at the concentration (1000 nM), read-out: Jnk-1 percentage inhibition (in brackets)
Experimental: as §7

[5] = biological target: Jnk3 (Homo sapiens (Human), UniProt P53779); experiment: Jnk3 radiolabelled P33 ATP assay (Kinase Hotspot Technology); format: biochemical; conditions: for IC50: at the Km for ATP, read-out: Concentration of compounds required for ~ 50% inhibition, Jnk-3
Experimental: as §7

[6] = 20 μM ATP (apparent Km), 2 nM kinase, 1 hr, values are activity bands, read-out: Inhibition of IKKε IC50
[7] = at the Km for ATP, read-out: Concentration of compounds required for ~ 50% inhibition, IKK-ε
[8] = 20 μM ATP (apparent Km), 8 nM kinase, 2.5 hr, values are activity bands, read-out: Inhibition of TBK-1 IC50
[9] = at the Km for ATP, read-out: Concentration of compounds required for ~ 50% inhibition, TBK-1
[10] = single point at the concentration (1000 nM), 1 μM ATP
[11] = single point at the concentration (1000 nM), 10 μM ATP

Sequence of TBK-1 (Q9UHD2 whole entry): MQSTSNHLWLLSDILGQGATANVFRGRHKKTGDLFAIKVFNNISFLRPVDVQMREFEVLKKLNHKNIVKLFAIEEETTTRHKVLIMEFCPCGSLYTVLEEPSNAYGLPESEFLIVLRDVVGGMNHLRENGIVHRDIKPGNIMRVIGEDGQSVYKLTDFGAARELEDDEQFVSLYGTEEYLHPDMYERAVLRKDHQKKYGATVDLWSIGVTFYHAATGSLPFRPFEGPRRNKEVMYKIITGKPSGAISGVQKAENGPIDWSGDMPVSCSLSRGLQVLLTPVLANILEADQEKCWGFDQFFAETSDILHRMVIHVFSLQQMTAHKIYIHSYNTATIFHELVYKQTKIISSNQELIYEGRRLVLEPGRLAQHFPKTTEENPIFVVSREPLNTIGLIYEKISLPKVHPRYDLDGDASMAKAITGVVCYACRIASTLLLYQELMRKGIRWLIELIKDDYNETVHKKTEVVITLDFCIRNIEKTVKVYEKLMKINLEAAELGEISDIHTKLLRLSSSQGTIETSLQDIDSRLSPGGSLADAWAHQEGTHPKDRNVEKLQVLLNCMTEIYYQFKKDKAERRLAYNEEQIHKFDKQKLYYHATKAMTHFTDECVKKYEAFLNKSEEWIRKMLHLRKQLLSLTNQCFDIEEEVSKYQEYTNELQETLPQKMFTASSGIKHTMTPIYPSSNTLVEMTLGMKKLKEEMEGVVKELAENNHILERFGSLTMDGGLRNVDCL
Sequence of IKKε (Q14164 whole entry): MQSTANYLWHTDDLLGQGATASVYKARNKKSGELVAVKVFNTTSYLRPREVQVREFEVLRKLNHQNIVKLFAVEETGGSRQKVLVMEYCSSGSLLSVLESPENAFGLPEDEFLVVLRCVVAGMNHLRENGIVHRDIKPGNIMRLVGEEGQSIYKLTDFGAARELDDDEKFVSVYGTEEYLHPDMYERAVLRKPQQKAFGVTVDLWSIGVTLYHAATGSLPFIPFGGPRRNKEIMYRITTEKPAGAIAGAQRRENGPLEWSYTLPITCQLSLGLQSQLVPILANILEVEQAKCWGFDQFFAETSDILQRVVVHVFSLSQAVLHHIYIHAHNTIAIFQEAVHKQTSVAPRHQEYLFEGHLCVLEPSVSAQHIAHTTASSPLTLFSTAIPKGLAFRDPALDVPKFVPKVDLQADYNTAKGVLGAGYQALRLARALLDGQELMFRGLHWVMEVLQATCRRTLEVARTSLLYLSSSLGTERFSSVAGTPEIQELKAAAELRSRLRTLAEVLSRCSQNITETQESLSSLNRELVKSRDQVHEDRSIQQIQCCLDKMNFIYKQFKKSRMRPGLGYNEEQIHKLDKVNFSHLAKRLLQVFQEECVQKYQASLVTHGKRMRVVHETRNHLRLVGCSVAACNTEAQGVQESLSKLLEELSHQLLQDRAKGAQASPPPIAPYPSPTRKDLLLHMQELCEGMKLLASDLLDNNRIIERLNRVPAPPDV
Sequence of Jnk1 (P45983 whole entry): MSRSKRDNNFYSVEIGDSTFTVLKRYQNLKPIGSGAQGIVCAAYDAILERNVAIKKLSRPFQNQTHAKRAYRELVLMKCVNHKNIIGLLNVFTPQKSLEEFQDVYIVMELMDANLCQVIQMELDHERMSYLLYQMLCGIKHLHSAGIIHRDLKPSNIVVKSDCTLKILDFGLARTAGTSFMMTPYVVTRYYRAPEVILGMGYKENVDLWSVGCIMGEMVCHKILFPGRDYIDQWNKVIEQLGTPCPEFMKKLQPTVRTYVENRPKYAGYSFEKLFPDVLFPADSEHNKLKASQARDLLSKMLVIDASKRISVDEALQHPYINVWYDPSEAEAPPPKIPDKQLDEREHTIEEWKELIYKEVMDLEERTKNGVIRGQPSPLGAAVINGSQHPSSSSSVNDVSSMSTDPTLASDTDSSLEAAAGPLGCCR
Sequence of IKKβ (O14920 whole entry): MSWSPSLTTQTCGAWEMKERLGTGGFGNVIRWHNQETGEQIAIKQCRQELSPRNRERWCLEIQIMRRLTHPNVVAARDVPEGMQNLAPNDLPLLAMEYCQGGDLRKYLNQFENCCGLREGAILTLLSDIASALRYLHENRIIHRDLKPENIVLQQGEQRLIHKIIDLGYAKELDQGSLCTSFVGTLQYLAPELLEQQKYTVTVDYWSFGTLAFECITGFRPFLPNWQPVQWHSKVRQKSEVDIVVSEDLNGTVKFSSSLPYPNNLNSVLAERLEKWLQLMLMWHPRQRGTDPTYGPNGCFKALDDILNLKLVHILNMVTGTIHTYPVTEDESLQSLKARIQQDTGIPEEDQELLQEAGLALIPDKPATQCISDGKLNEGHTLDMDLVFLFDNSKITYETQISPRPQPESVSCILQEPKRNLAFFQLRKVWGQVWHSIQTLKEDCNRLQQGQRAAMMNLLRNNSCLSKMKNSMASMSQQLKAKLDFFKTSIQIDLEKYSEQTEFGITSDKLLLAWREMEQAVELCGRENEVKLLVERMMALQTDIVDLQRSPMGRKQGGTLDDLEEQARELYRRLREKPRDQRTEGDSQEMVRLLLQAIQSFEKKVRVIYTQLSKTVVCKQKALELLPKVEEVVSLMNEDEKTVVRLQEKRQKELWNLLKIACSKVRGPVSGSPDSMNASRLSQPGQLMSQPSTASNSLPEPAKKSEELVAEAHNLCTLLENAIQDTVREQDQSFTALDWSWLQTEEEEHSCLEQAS
Sequence of Jnk3 (P53779 whole entry): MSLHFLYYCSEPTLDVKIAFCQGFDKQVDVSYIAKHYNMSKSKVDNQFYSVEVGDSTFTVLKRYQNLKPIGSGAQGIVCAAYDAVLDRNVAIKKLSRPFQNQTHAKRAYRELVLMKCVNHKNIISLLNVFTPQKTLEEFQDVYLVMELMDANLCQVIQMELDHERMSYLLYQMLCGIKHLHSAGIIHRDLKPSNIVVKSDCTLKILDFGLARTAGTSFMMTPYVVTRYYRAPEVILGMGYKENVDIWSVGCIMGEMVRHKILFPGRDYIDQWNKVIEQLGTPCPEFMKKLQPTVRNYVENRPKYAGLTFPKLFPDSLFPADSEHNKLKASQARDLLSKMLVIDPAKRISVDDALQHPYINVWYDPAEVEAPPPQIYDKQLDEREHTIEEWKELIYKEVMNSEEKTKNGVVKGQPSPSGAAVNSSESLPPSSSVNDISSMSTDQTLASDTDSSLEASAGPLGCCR

N#Cc1cc(-c2ccnc(Nc3cccc(C(N)=O)c3)n2)ccc1N1CCCC1 [DMX-1, 3-[4-(3-cyano-4-pyrrolidin-1-yl-phenyl)-pyrimidin-2-ylamino]-benzamide]
IC50 [1, 6]: < 30 nM
IC50 [1, 7]: 2 nM
IC50 [2, 8]: < 30 nM
IC50 [2, 9]: 4 nM
inhibition at 1 µM [3]: 48%
IC50 ([3]; 1 μM ATP): 1000 nM
IC50 ([4]; at the Km for ATP): 254 nM
IC50 [5]: > 10000 nM

N#Cc1cc(-c2ccnc(Nc3ccc(C(N)=O)cc3)n2)ccc1N1CCCC1 [DMX-8]
IC50 [1, 6]: < 30 nM
IC50 [1, 7]: 3 nM
IC50 [2, 8]: < 30 nM
IC50 [2, 9]: 3 nM
inhibition at 1 µM [3, 10]: 50%
IC50 ([3]; 1 μM ATP): 1000 nM
IC50 ([4]; at the Km for ATP): 354 nM
IC50 [5]: > 10000 nM

CC(=O)Nc1ccc(Nc2nccc(-c3ccc(N4CCCC4)c(C#N)c3)n2)cc1 [DMX-9]
IC50 [1, 6]: < 30 nM
IC50 [1, 7]: 3 nM
IC50 [2, 8]: < 30 nM
IC50 [2, 9]: 3 nM
inhibition at 1 µM [3, 10]: 34%
IC50 ([3]; 1 μM ATP): 1000 nM
IC50 ([4]; at the Km for ATP): 262 nM
IC50 [5]: 10000 nM
inhibition at 10 µM ([5]; at the printed concentration (10000 nM), Km for ATP, read-out: Jnk-3 percentage inhibition (in brackets)): 51%

N#Cc1cc(-c2ccnc(Nc3ccc4c(c3)CC(=O)N4)n2)ccc1N1CCCC1 [DMX-14]
IC50 [1, 6]: < 30 nM
IC50 [1, 7]: 3 nM
IC50 [2, 8]: < 30 nM
IC50 [2, 9]: 2 nM
inhibition at 1 µM [3, 10]: 45%
IC50 ([3]; 1 μM ATP): 1000 nM
IC50 ([4]; at the Km for ATP): 201 nM
IC50 [5]: > 10000 nM

N#Cc1cc(-c2ccnc(Nc3ccc(N4CCOCC4)nc3)n2)ccc1N1CCCC1 [DMX-16]
IC50 [1, 6]: < 30 nM
IC50 [1, 7]: 2 nM
IC50 [2, 8]: < 30 nM
IC50 [2, 9]: 1 nM
inhibition at 1 µM [3, 10]: 43%
IC50 ([3]; 1 μM ATP): 1000 nM
IC50 ([4]; at the Km for ATP): 222 nM
IC50 [5]: > 10000 nM

Cn1cc(Nc2nccc(-c3ccc(N4CCCC4)c(C#N)c3)n2)cn1 [DMX-56]
IC50 [1, 6]: < 30 nM
IC50 [1, 7]: 8 nM
IC50 [2, 8]: < 30 nM
IC50 [2, 9]: 3 nM
inhibition at 1 µM [3, 11]: 56%
IC50 ([3]; 10 μM ATP): 1000 nM
inhibition at 1 µM ([4]; 10 μM ATP): 21%
IC50 ([4]; single point, 10 μM ATP): > 1000 nM

Cn1cncc1Nc1nccc(-c2ccc(N3CCCC3)c(C#N)c2)n1 [DMX-60]
IC50 [1, 6]: 30 to 300 nM
IC50 [2, 8]: 30 to 300 nM

CN(C)CCOc1ccc(Nc2nccc(-c3ccc(N4CCCC4)c(C#N)c3)n2)cn1 [DMX-61]
IC50 [1, 6]: < 30 nM
IC50 [2, 8]: < 30 nM

CN(C)CCNc1ccc(Nc2nccc(-c3ccc(N4CC[C@H](O)C4)c(C#N)c3)n2)cn1 [DMX-62]
IC50 [1, 6]: < 30 nM
IC50 [2, 8]: < 30 nM

C[C@H]1CCCN1c1ccc(-c2ccnc(Nc3ccc(NCCN(C)C)nc3)n2)cc1C#N [DMX-63]
IC50 [1, 6]: < 30 nM
IC50 [2, 8]: < 30 nM

CN(C)CCNc1ccc(Nc2nccc(-c3ccc(N4CCC(C(N)=O)CC4)c(C#N)c3)n2)cn1 [DMX-64]
IC50 [1, 6]: < 30 nM
IC50 [2, 8]: 30 to 300 nM

CN(C)CCNc1ccc(Nc2nccc(-c3ccc(N4CCC(O)CC4)c(C#N)c3)n2)cn1 [DMX-65]
IC50 [1, 6]: 30 to 300 nM
IC50 [2, 8]: 30 to 300 nM

CC(=O)Nc1ccc(Nc2nccc(-c3ccc(N4CC(O)C4)c(C#N)c3)n2)cn1 [DMX-66]
IC50 [1, 6]: < 30 nM
IC50 [1, 7]: 21 nM
IC50 [2, 8]: < 30 nM
IC50 [2, 9]: 24 nM
inhibition at 1 µM [3, 11]: 43%
IC50 ([3]; 10 μM ATP): 1000 nM
inhibition at 1 µM ([4]; 10 μM ATP): 52%
IC50 ([4]; single point, 10 μM ATP): 1000 nM

CNC(=O)[C@H]1CCCN1c1ccc(-c2ccnc(Nc3ccc(NC(C)=O)nc3)n2)cc1C#N [DMX-67]
IC50 [1, 6]: 300 to 9000 nM
IC50 [2, 8]: < 9000 nM

CNC(=O)C1CCN(c2ccc(-c3ccnc(Nc4ccc(NC(C)=O)nc4)n3)cc2C#N)CC1 [DMX-68]
IC50 [1, 6]: 30 to 300 nM
IC50 [2, 8]: 30 to 300 nM

CN(C)CCNc1ccc(Nc2nccc(-c3ccc(N4CC[C@H](F)C4)c(C#N)c3)n2)cn1 [DMX-69]
IC50 [1, 6]: < 30 nM
IC50 [1, 7]: 4 nM
IC50 [2, 8]: < 30 nM
IC50 [2, 9]: 4 nM
inhibition at 1 µM [3, 11]: 54%
IC50 ([3]; 10 μM ATP): 1000 nM
inhibition at 1 µM ([4]; 10 μM ATP): 43%
IC50 ([4]; single point, 10 μM ATP): 1000 nM

CC(=O)Nc1ccc(Nc2nccc(-c3ccc(N4CCC[C@H]4C(N)=O)c(C#N)c3)n2)cn1 [DMX-70]
IC50 [1, 6]: 30 to 300 nM
IC50 [2, 8]: 30 to 300 nM

COC[C@H]1CCCN1c1ccc(-c2ccnc(Nc3ccc(NC(C)=O)nc3)n2)cc1C#N [DMX-71]
IC50 [1, 6]: < 30 nM
IC50 [2, 8]: < 30 nM

CN(C)CCNc1ccc(Nc2nccc(-c3ccc(N4CCC[C@@H]4C(N)=O)c(C#N)c3)n2)cn1 [DMX-72]
IC50 [1, 6]: 30 to 300 nM
IC50 [2, 8]: 30 to 300 nM

CC(=O)Nc1ccc(Nc2nccc(-c3ccc(N4CC[C@@H](O)C4)c(C#N)c3)n2)cn1 [DMX-73]
IC50 [1, 6]: < 30 nM
IC50 [2, 8]: < 30 nM

Cn1cc(Nc2nccc(-c3ccc(N4CC[C@H](O)C4)c(C#N)c3)n2)cn1 [DMX-74]
IC50 [1, 6]: < 30 nM
IC50 [2, 8]: < 30 nM

Cn1cc(Nc2nccc(-c3ccc(N4CCC(C(N)=O)CC4)c(C#N)c3)n2)cn1 [DMX-75]
IC50 [1, 6]: < 30 nM
IC50 [2, 8]: 30 to 300 nM

CO[C@H]1CCN(c2ccc(-c3ccnc(Nc4ccc(NC(C)=O)nc4)n3)cc2C#N)C1 [DMX-76]
IC50 [1, 6]: < 30 nM
IC50 [2, 8]: < 30 nM

CN1CCC(Nc2ccc(Nc3nccc(-c4ccc(N5CC[C@@H](F)C5)c(C#N)c4)n3)cn2)CC1 [DMX-77]
IC50 [1, 6]: < 30 nM
IC50 [2, 8]: < 30 nM

CN1CCC(Nc2ccc(Nc3nccc(-c4ccc(N5CC[C@H](F)C5)c(C#N)c4)n3)cn2)CC1 [DMX-78]
IC50 [1, 6]: < 30 nM
IC50 [2, 8]: < 30 nM

CN1CCC(Nc2ccc(Nc3nccc(-c4ccc(N5CC[C@H](O)C5)c(C#N)c4)n3)cn2)CC1 [DMX-79]
IC50 [1, 6]: < 30 nM
IC50 [2, 8]: < 30 nM

CN1CCC(Nc2ccc(Nc3nccc(-c4ccc(N5CCC(F)(F)C5)c(C#N)c4)n3)cn2)CC1 [DMX-80]
IC50 [1, 6]: < 30 nM
IC50 [2, 8]: < 30 nM
